# Target: T1, human calcium-sensing receptor (CaSR) (Homo sapiens, UniProt P41180)
# T1 construct: expressed in transfected cells
# T1 sequence (P41180 20-1078): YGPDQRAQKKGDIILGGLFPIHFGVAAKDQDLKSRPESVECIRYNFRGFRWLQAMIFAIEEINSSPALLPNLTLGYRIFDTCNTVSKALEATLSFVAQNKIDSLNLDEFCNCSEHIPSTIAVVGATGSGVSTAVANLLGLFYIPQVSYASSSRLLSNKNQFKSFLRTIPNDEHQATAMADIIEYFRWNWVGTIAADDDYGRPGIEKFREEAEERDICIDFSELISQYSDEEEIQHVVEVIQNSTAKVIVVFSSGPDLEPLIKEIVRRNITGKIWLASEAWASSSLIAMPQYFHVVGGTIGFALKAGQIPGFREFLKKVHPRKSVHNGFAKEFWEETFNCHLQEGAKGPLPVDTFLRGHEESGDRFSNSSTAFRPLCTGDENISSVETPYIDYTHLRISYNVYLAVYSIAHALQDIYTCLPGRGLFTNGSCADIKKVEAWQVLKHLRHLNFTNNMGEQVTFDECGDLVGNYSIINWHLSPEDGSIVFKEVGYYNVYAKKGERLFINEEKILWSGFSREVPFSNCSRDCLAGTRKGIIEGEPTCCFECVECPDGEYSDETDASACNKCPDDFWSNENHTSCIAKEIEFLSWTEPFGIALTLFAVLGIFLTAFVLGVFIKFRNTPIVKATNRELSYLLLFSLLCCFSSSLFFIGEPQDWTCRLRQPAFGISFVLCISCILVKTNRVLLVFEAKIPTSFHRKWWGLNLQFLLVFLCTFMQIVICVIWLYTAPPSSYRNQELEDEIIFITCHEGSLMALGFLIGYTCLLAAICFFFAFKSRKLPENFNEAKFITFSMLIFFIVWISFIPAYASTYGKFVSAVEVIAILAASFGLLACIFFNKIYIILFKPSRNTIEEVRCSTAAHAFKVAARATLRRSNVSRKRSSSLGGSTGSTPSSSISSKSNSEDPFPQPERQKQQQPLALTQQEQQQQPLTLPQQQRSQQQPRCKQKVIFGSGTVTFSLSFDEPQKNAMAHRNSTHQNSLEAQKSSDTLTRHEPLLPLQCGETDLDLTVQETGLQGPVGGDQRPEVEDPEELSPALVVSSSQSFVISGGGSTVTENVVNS
# Assay: intracellular Ca assay, CaSR antagonist activity in HEK293/hCaSR cells
# Format: cell-based
# Conditions: Fura2-AM, inhibition of response to calcium chloride ligand solution, read-out: IC50 values according to the intracellular Ca assay (CaSR antagonist activity)
# Procedure: HEK293 cells stably expressing human calcium-sensing receptor (CaSR) (termed HEK293/hCaSR cells) were used. HEK293/hCaSR cells were cultured in a culture medium [DMEM medium containing 0.5 mg/mL Geneticin, 50 Unit/mL penicillin, 50 μg/mL streptomycin and 10% fetal bovine serum (FBS), all manufactured by Invitrogen] to semiconfluent in an incubator at 37° C. under 5% carbon dioxide atmosphere.
# Cultured cells were washed with phosphate buffered saline (PBS(−), manufactured by Dainippon Sumitomo Pharmaceutical Company) which had been prewarmed to 37° C., added with PBS(−) containing 10 mM ethylenediamine tetraacetic acid (EDTA), and then incubated in an incubator at 37° C. for 10 minutes. After adding the culture medium to separate the cells, cell suspension was transferred to a centrifuge tube. Cells were collected by centrifuge at 1,500 rpm for 3 minutes, and resuspended in Ca assay buffer [20 mM HEPES buffer (pH 7.4), 115 mM sodium chloride, 5.4 mM potassium chloride, 0.8 mM magnesium chloride, 0.8 mM calcium chloride, 13.8 mM D(+)-glucose (all manufactured by Wako Pure Chemicals) and 0.1% bovine serum albumin (manufactured by SIGMA)] containing 0.2% Pluronic F-127 (manufactured by Molecular Probes) and […] Fura2-AM (manufactured by DOJINDO LABORATORIES) to obtain a cell suspension of 5×10^6 cells/mL. After incubating at 37° C. for 30 minutes, the cells were washed twice with the Ca assay buffer and suspended in the same buffer to obtain a cell suspension of 1×10^6 cells/60 μL. 60 μL of the cell suspension was aliquoted to each well of a 96 well UV microplate (manufactured by Corning Co.) to give a cell plate.
# The test compound was diluted with the Ca assay buffer to five times the final concentration and then 80 μL of the diluted compound was applied to each well of a 96 well round bottomed microplate (manufactured by Corning Co.) to give a sample plate. 80 μL of the Ca assay buffer containing 7.5 mM calcium chloride (i.e., ligand solution) was applied to each well of a 96 well round bottomed microplate to give a ligand plate. Then, thus prepared sample plate, ligand plate, and the cell plate were placed in Functional Drug Screening System (FDSS) 4000 (manufactured by Hamamatsu Photonics K.K.) which had been preswitched on and prewarmed to 37° C. Measurements were then carried out as follows. After incubating the cell plate for 180 seconds, fluorescence intensity was measured every two seconds (excitation wavelength; 340 nm and 380 nm, measurement wavelength; 500 nm). After the measurement for 40 seconds, 20 μL of the test compound solution from the sample plate was added to the cell plate, followed by continuous measurement for 160 seconds. Then, 20 μL of the ligand solution from the ligand plate was added to the cell plate, followed by continuous measurement for 100 seconds.
# Amount of change in intracellular Ca concentration is indicated as a peak height of the ratio of the fluorescence intensity with excitation of 340 nm and 380 nm (i.e., fluorescence intensity with excitation at 340 nm/fluorescence intensity with excitation at 380 nm) that is obtained from the difference between the maximum ratio after adding the ligand solution and the ratio before adding the ligand solution. Further, when the peak height obtained from the Ca assay buffer containing no test compound has inhibition ratio of 0% while the peak height obtained from the Ca assay buffer containing no calcium chloride as a ligand solution has inhibition ratio of 100%, inhibition ratio for each test compound (i.e., CaSR antagonist activity) was calculated.
row,Compound,IC50
1,"CN(C[C@H](O)CNC(C)(C)Cc1ccc2ccccc2c1)S(=O)(=O)c1cccc(-c2ccc(NC(=O)CCC(=O)O)cc2)c1 [Exp. 3-21, (R)-4-(3′-(N-(2-hydroxy-3-(2-methyl-1-(naphthalen-2-yl)propan-2-ylamino)propyl)-N-methylsulfamoyl)biphenyl-4-ylamino)-4-oxobutanoic acid]",300 to 1000 nM
2,"COCc1cc(-c2cccc(S(=O)(=O)N(C)C[C@H](O)CNC(C)(C)Cc3ccc4ccccc4c3)c2)ccc1C(=O)O [Exp. 3-22, (R)-3′-(N-(2-hydroxy-3-(2-methyl-1-(naphthalen-2-yl)propan-2-ylamino)propyl)-N-methylsulfamoyl)-3-(methoxymethyl)biphenyl-4-carboxylic acid]",300 to 1000 nM
3,"CN(C[C@H](O)CNC(C)(C)Cc1ccc2ccccc2c1)S(=O)(=O)c1cccc(-c2cc(F)cc(C(=O)O)c2)c1 [Exp. 3-23, (R)-5-fluoro-3′-(N-(2-hydroxy-3-(2-methyl-1-(naphthalen-2-yl)propan-2-ylamino)propyl)-N-methylsulfamoyl)biphenyl-3-carboxylic acid]",≤ 300 nM
4,"CN(C[C@H](O)CNC(C)(C)Cc1ccc2ccccc2c1)S(=O)(=O)c1cccc(-c2ccc(C(=O)O)c(O)c2)c1 [Exp. 3-24, (R)-3-hydroxy-3′-(N-(2-hydroxy-3-(2-methyl-1-(naphthalen-2-yl)propan-2-ylamino)propyl)-N-methylsulfamoyl)biphenyl-4-carboxylic acid]",300 to 1000 nM
5,"CN(C[C@H](O)CNC(C)(C)Cc1ccc2ccccc2c1)S(=O)(=O)c1cccc(-c2cc(F)c(C(=O)O)c(F)c2)c1 [Exp. 3-25, (R)-3,5-difluoro-3′-(N-(2-hydroxy-3-(2-methyl-1-(naphthalen-2-yl)propan-2-ylamino)propyl)-N-methylsulfamoyl)biphenyl-4-carboxylic acid]",300 to 1000 nM
6,"CN(C[C@H](O)CNC(C)(C)Cc1ccc2ccccc2c1)S(=O)(=O)c1cccc(-c2ccc(C(=O)O)s2)c1 [Exp. 3-26, (R)-5-(3-(N-(2-hydroxy-3-(2-methyl-1-(naphthalen-2-yl)propan-2-ylamino)propyl)-N-methylsulfamoyl)phenyl)thiophen-2-carboxylic acid]",300 to 1000 nM
7,"CN(C[C@H](O)CNC(C)(C)Cc1ccc2ccccc2c1)S(=O)(=O)c1cccc(-c2ccc(C(=O)NCCC(=O)O)cc2)c1 [Exp. 3-27, (R)-3-(3′-(N-(2-hydroxy-3-(2-methyl-1-(naphthalen-2-yl)propan-2-ylamino)propyl)-N-methylsulfamoyl)biphenyl-4-ylcarboxamide)propionic acid]",300 to 1000 nM
8,"CN(C[C@H](O)CNC(C)(C)Cc1ccc2ccccc2c1)S(=O)(=O)c1cccc(-c2ccc(NCC(=O)O)cc2)c1 [Exp. 3-28, (R)-2-(3′-(N-(2-hydroxy-3-(2-methyl-1-(naphthalen-2-yl)propan-2-ylamino)propyl)-N-methylsulfamoyl)biphenyl-4-ylamino)acetic acid]",300 to 1000 nM
9,"CN(C[C@H](O)CNC(C)(C)Cc1ccc2ccccc2c1)S(=O)(=O)c1ccc(-c2ccccc2C(=O)O)cc1 [Exp. 3-29, (R)-4′-(N-(2-hydroxy-3-(2-methyl-1-(naphthalen-2-yl)propan-2-ylamino)propyl)-N-methylsulfamoyl)biphenyl-2-carboxylic acid]",300 to 1000 nM
10,"CN(C[C@H](O)CNC(C)(C)Cc1ccc2ccccc2c1)S(=O)(=O)c1ccc(-c2cccc(C(=O)O)c2)cc1 [Exp. 3-30, (R)-4′-(N-(2-hydroxy-3-(2-methyl-1-(naphthalen-2-yl)propan-2-ylamino)propyl)-N-methylsulfamoyl)biphenyl-3-carboxylic acid]",≤ 300 nM
11,"CN(C[C@H](O)CNC(C)(C)Cc1ccc2ccccc2c1)S(=O)(=O)c1ccc(-c2ccc(C(=O)O)cc2)cc1 [Exp. 3-31, (R)-4′-(N-(2-hydroxy-3-(2-methyl-1-(naphthalen-2-yl)propan-2-ylamino)propyl)-N-methylsulfamoyl)biphenyl-4-carboxylic acid]",300 to 1000 nM
12,"Cc1ccc(-c2ccc(S(=O)(=O)N(C)C[C@H](O)CNC(C)(C)Cc3ccc4ccccc4c3)cc2)cc1C(=O)O [Exp. 3-32, (R)-4′-(N-(2-hydroxy-3-(2-methyl-1-(naphthalen-2-yl)propan-2-ylamino)propyl)-N-methylsulfamoyl)-4-methylbiphenyl-3-carboxylic acid]",1000 to 3000 nM
13,"Cc1cc(-c2ccc(S(=O)(=O)N(C)C[C@H](O)CNC(C)(C)Cc3ccc4ccccc4c3)cc2)ccc1C(=O)O [Exp. 3-33, (R)-4′-(N-(2-hydroxy-3-(2-methyl-1-(naphthalen-2-yl)propan-2-ylamino)propyl)-N-methylsulfamoyl)-3-methylbiphenyl-4-carboxylic acid]",300 to 1000 nM
14,"CN(C[C@H](O)CNC(C)(C)Cc1ccc2ccccc2c1)S(=O)(=O)c1ccc(-c2ccc(C(=O)O)c(N)c2)cc1 [Exp. 3-34, (R)-3-amino-4′-(N-(2-hydroxy-3-(2-methyl-1-(naphthalen-2-yl)propan-2-ylamino)propyl)-N-methylsulfamoyl)biphenyl-4-carboxylic acid]",1000 to 3000 nM
15,"CN(C[C@H](O)CNC(C)(C)Cc1ccc2ccccc2c1)S(=O)(=O)c1ccc(-c2ccc(C(=O)O)cc2F)cc1 [Exp. 3-35, (R)-2-fluoro-4′-(N-(2-hydroxy-3-(2-methyl-1-(naphthalen-2-yl)propan-2-ylamino)propyl)-N-methylsulfamoyl)biphenyl-4-carboxylic acid]",300 to 1000 nM
16,"CN(C[C@H](O)CNC(C)(C)Cc1ccc2ccccc2c1)S(=O)(=O)c1ccc(-c2cc3c(c(C(=O)O)c2)OCC3)cc1 [Exp. 3-36, (R)-5-(4-(N-(2-hydroxy-3-(2-methyl-1-(naphthalen-2-yl)propan-2-ylamino)propyl)-N-methylsulfamoyl)phenyl)-2,3-dihydrobenzofuran-7-carboxylic acid]",1000 to 3000 nM
17,"CN(C[C@H](O)CNC(C)(C)Cc1ccc2ccccc2c1)S(=O)(=O)c1ccc(-c2cccc(C=CC(=O)O)c2)cc1 [Exp. 3-39, (R)-3-(4′-(N-(2-hydroxy-3-(2-methyl-1-(naphthalen 2-yl)propan-2-ylamino)propyl)-N-methylsulfamoyl)biphenyl-3-yl)acrylic acid]",300 to 1000 nM

# Reference: patent US8039514B2, “Sulfonamide compounds and use thereof” (Asahi Kasei Pharma Corporation, priority 2008, dated 2011)
